Results taken from PubChem BioAssay (NCI).
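Following 48 hours of exposure in 96-well plates, responses at five concentrations were used to interpolate endpoints linearly. GI50 is the concentration that inhibits growth by half. TGI: concentration producing complete growth inhibition.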

Key:
Assay in all cases: DTP human tumour cell line panel, 48 h
HCC-2998 colon = system: HCC-2998 colon
K-562 leukemia = system: K-562 leukemia
CCRF-CEM leukemia = system: CCRF-CEM leukemia
UACC-62 melanoma = system: UACC-62 melanoma
A498 renal = system: A498 renal
RPMI-8226 leukemia = system: RPMI-8226 leukemia
MCF7 breast = system: MCF7 breast
NCI-H460 lung = system: NCI-H460 lung
CAKI-1 renal = system: CAKI-1 renal
OVCAR-8 ovarian = system: OVCAR-8 ovarian
MALME-3M melanoma = system: MALME-3M melanoma
SW-620 colon = system: SW-620 colon
COLO 205 colon = system: COLO 205 colon
MDA-MB-435 = system: MDA-MB-435
RXF 393 renal = system: RXF 393 renal
MDA-MB-231 breast = system: MDA-MB-231 breast
SR leukemia = system: SR leukemia
TK-10 renal = system: TK-10 renal
SNB-19 CNS = system: SNB-19 CNS
A549 NSCLC = system: A549 NSCLC
SF-268 CNS = system: SF-268 CNS
BT-549 breast = system: BT-549 breast
SF-295 CNS = system: SF-295 CNS
HOP-62 NSCLC = system: HOP-62 NSCLC
LOX IMVI melanoma = system: LOX IMVI melanoma
SN12C renal = system: SN12C renal
HS 578T breast = system: HS 578T breast
OVCAR-3 ovarian = system: OVCAR-3 ovarian
UACC-257 melanoma = system: UACC-257 melanoma
NCI/ADR-RES ovarian = system: NCI/ADR-RES ovarian
T-47D breast = system: T-47D breast
NCI-H23 lung = system: NCI-H23 lung
SF-539 CNS = system: SF-539 CNS
KM12 colon = system: KM12 colon
SK-MEL-28 melanoma = system: SK-MEL-28 melanoma
SK-OV-3 ovarian = system: SK-OV-3 ovarian
DU-145 prostate = system: DU-145 prostate
SNB-75 CNS = system: SNB-75 CNS
NCI-H226 lung = system: NCI-H226 lung
EKVX NSCLC = system: EKVX NSCLC
OVCAR-4 ovarian = system: OVCAR-4 ovarian
PC-3 prostate = system: PC-3 prostate
HCT-15 colon = system: HCT-15 colon
ACHN renal = system: ACHN renal
SK-MEL-2 melanoma = system: SK-MEL-2 melanoma
HL-60(TB) leukemia = system: HL-60(TB) leukemia
OVCAR-5 ovarian = system: OVCAR-5 ovarian
M14 melanoma = system: M14 melanoma
IGROV1 ovarian = system: IGROV1 ovarian
NCI-H522 lung = system: NCI-H522 lung
SK-MEL-5 melanoma = system: SK-MEL-5 melanoma
MOLT-4 leukemia = system: MOLT-4 leukemia
786-0 renal = system: 786-0 renal
HT29 colon = system: HT29 colon
U251 CNS = system: U251 CNS
HCT-116 colon = system: HCT-116 colon
UO-31 renal = system: UO-31 renal
HOP-92 NSCLC = system: HOP-92 NSCLC
MDA-N = system: MDA-N

SMILES: C=C(C)[C@@H]1CC[C@]2(c3ncc(C)o3)CC[C@]3(C)[C@H](CC[C@@H]4[C@@](C)(CCC#N)[C@H](C(=C)C)CC[C@]43C)[C@@H]12
- GI50 (HCC-2998 colon): 3.51 µM
- TGI (HCC-2998 colon): 12.4 µM
- GI50 (K-562 leukemia): 2.99 µM
- TGI (K-562 leukemia): > 100 µM
- GI50 (CCRF-CEM leukemia): 2.93 µM
- TGI (CCRF-CEM leukemia): 10.2 µM
- GI50 (UACC-62 melanoma): 2.38 µM
- TGI (UACC-62 melanoma): 6.96 µM
- GI50 (A498 renal): 14.4 µM
- TGI (A498 renal): 27.8 µM
- GI50 (RPMI-8226 leukemia): 2.44 µM
- TGI (RPMI-8226 leukemia): 6.9 µM
- GI50 (MCF7 breast): 2.87 µM
- TGI (MCF7 breast): 10.5 µM
- GI50 (NCI-H460 lung): 5.42 µM
- TGI (NCI-H460 lung): 19.4 µM
- GI50 (CAKI-1 renal): 2.8 µM
- TGI (CAKI-1 renal): 16.1 µM
- GI50 (OVCAR-8 ovarian): 6.57 µM
- TGI (OVCAR-8 ovarian): 21.9 µM
- GI50 (MALME-3M melanoma): 2.65 µM
- TGI (MALME-3M melanoma): 9.75 µM
- GI50 (SW-620 colon): 5.81 µM
- TGI (SW-620 colon): 20.8 µM
- GI50 (COLO 205 colon): 5.79 µM
- TGI (COLO 205 colon): 21.4 µM
- GI50 (MDA-MB-435): 4.87 µM
- TGI (MDA-MB-435): 18 µM
- GI50 (RXF 393 renal): 2.14 µM
- TGI (RXF 393 renal): 5.12 µM
- GI50 (MDA-MB-231 breast): 2.53 µM
- TGI (MDA-MB-231 breast): 6.41 µM
- GI50 (SR leukemia): 2.75 µM
- TGI (SR leukemia): > 100 µM
- GI50 (TK-10 renal): 14 µM
- TGI (TK-10 renal): 28.2 µM
- GI50 (SNB-19 CNS): 3.66 µM
- TGI (SNB-19 CNS): 14.5 µM
- GI50 (A549 NSCLC): 6.19 µM
- TGI (A549 NSCLC): 22.3 µM
- GI50 (SF-268 CNS): 4.68 µM
- TGI (SF-268 CNS): 18.9 µM
- GI50 (BT-549 breast): 14.4 µM
- TGI (BT-549 breast): 29.2 µM
- GI50 (SF-295 CNS): 7.22 µM
- TGI (SF-295 CNS): 21.2 µM
- GI50 (HOP-62 NSCLC): 6.99 µM
- TGI (HOP-62 NSCLC): 21.6 µM
- GI50 (LOX IMVI melanoma): 1.95 µM
- TGI (LOX IMVI melanoma): 4.14 µM
- GI50 (SN12C renal): 3.16 µM
- TGI (SN12C renal): 12.1 µM
- GI50 (HS 578T breast): 4.3 µM
- TGI (HS 578T breast): 19.4 µM
- GI50 (OVCAR-3 ovarian): 4.16 µM
- TGI (OVCAR-3 ovarian): 15.5 µM
- GI50 (UACC-257 melanoma): 9.02 µM
- TGI (UACC-257 melanoma): 24.4 µM
- GI50 (NCI/ADR-RES ovarian): 3.33 µM
- TGI (NCI/ADR-RES ovarian): 11.9 µM
- GI50 (T-47D breast): 3.19 µM
- TGI (T-47D breast): 15 µM
- GI50 (NCI-H23 lung): 6.54 µM
- TGI (NCI-H23 lung): 21.4 µM
- GI50 (SF-539 CNS): 9.05 µM
- TGI (SF-539 CNS): 21.7 µM
- GI50 (KM12 colon): 3.89 µM
- TGI (KM12 colon): 15.1 µM
- GI50 (SK-MEL-28 melanoma): 5.42 µM
- TGI (SK-MEL-28 melanoma): 18.4 µM
- GI50 (SK-OV-3 ovarian): 11.4 µM
- TGI (SK-OV-3 ovarian): 25.2 µM
- GI50 (DU-145 prostate): 3.54 µM
- TGI (DU-145 prostate): 13.2 µM
- GI50 (SNB-75 CNS): 2.44 µM
- TGI (SNB-75 CNS): 16.6 µM
- GI50 (NCI-H226 lung): 3.28 µM
- TGI (NCI-H226 lung): 14.5 µM
- GI50 (EKVX NSCLC): 3.13 µM
- TGI (EKVX NSCLC): 12.6 µM
- GI50 (OVCAR-4 ovarian): 4.38 µM
- TGI (OVCAR-4 ovarian): 17.3 µM
- GI50 (PC-3 prostate): 1.83 µM
- TGI (PC-3 prostate): 4 µM
- GI50 (HCT-15 colon): 3.94 µM
- TGI (HCT-15 colon): 17.1 µM
- GI50 (ACHN renal): 4.65 µM
- TGI (ACHN renal): 17.2 µM
- GI50 (SK-MEL-2 melanoma): 16.4 µM
- TGI (SK-MEL-2 melanoma): 33.7 µM
- GI50 (HL-60(TB) leukemia): 2.49 µM
- TGI (HL-60(TB) leukemia): 6.83 µM
- GI50 (OVCAR-5 ovarian): 8.73 µM
- TGI (OVCAR-5 ovarian): 21.1 µM
- GI50 (M14 melanoma): 7.8 µM
- TGI (M14 melanoma): 24.2 µM
- GI50 (IGROV1 ovarian): 5.07 µM
- TGI (IGROV1 ovarian): 19.1 µM
- GI50 (NCI-H522 lung): 1.9 µM
- TGI (NCI-H522 lung): 4.16 µM
- GI50 (SK-MEL-5 melanoma): 3.65 µM
- TGI (SK-MEL-5 melanoma): 13.7 µM
- GI50 (MOLT-4 leukemia): 2.85 µM
- TGI (MOLT-4 leukemia): 9.82 µM
- GI50 (786-0 renal): 8.23 µM
- TGI (786-0 renal): 23.4 µM
- GI50 (HT29 colon): 3.81 µM
- TGI (HT29 colon): 14.8 µM
- GI50 (U251 CNS): 3.54 µM
- TGI (U251 CNS): 13.6 µM
- GI50 (HCT-116 colon): 4.41 µM
- TGI (HCT-116 colon): 16.4 µM
- GI50 (UO-31 renal): 2.4 µM
- TGI (UO-31 renal): 14.8 µM
- GI50 (HOP-92 NSCLC): 1.56 µM
- TGI (HOP-92 NSCLC): 3.39 µM

SMILES: S=C(S)NCCCn1ccnc1
- TGI (K-562 leukemia): > 100 µM
- TGI (UACC-62 melanoma): > 100 µM
- TGI (A498 renal): > 100 µM
- TGI (RPMI-8226 leukemia): > 100 µM
- TGI (MCF7 breast): > 100 µM
- TGI (NCI-H460 lung): > 100 µM
- TGI (CAKI-1 renal): > 100 µM
- TGI (OVCAR-8 ovarian): > 100 µM
- TGI (MALME-3M melanoma): > 100 µM
- TGI (SW-620 colon): > 100 µM
- TGI (COLO 205 colon): > 100 µM
- TGI (MDA-MB-435): > 100 µM
- TGI (MDA-MB-231 breast): > 100 µM
- TGI (SR leukemia): > 100 µM
- TGI (TK-10 renal): > 100 µM
- TGI (SNB-19 CNS): > 100 µM
- TGI (A549 NSCLC): > 100 µM
- TGI (SF-268 CNS): > 100 µM
- TGI (BT-549 breast): > 100 µM
- TGI (SF-295 CNS): > 100 µM
- TGI (HOP-62 NSCLC): > 100 µM
- TGI (LOX IMVI melanoma): > 100 µM
- TGI (SN12C renal): > 100 µM
- TGI (MDA-N): > 100 µM
- TGI (OVCAR-3 ovarian): > 100 µM
- TGI (UACC-257 melanoma): > 100 µM
- TGI (NCI/ADR-RES ovarian): > 100 µM
- TGI (T-47D breast): > 100 µM
- TGI (NCI-H23 lung): > 100 µM
- TGI (SF-539 CNS): > 100 µM
- TGI (KM12 colon): > 100 µM
- TGI (SK-MEL-28 melanoma): > 100 µM
- TGI (SK-OV-3 ovarian): > 100 µM
- TGI (DU-145 prostate): > 100 µM
- TGI (NCI-H226 lung): > 100 µM
- TGI (EKVX NSCLC): > 100 µM
- TGI (OVCAR-4 ovarian): > 100 µM
- TGI (PC-3 prostate): > 100 µM
- TGI (HCT-15 colon): > 100 µM
- TGI (ACHN renal): > 100 µM
- TGI (SK-MEL-2 melanoma): > 100 µM
- TGI (HL-60(TB) leukemia): > 100 µM
- TGI (OVCAR-5 ovarian): > 100 µM
- TGI (M14 melanoma): > 100 µM
- TGI (IGROV1 ovarian): > 100 µM
- TGI (NCI-H522 lung): > 100 µM
- TGI (SK-MEL-5 melanoma): > 100 µM
- TGI (MOLT-4 leukemia): > 100 µM
- TGI (786-0 renal): > 100 µM
- TGI (HT29 colon): > 100 µM
- TGI (U251 CNS): > 100 µM
- TGI (HCT-116 colon): > 100 µM
- TGI (UO-31 renal): > 100 µM
- TGI (HOP-92 NSCLC): > 100 µM
